pEC50, pKi: −log10 of the molar value.
What was measured:
[1] = biological target: T1, BRD4 (BDII_E352-M457) (Homo sapiens, UniProt O60885); experiment: TR-FRET bromodomain binding assay, second bromodomain of BRD4; settings: His-tagged BD2, 30 nM Alexa647 probe; TR-FRET protocol A-E given per row
T1 construct: proliferation; Protocol; made in house
Procedure, shortened: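 His-tagged BRD4 BD2 ([…]) competed against an Alexa647-labelled BET-inhibitor probe in TR-FRET. Buffer was 20 mM sodium phosphate pH 6.0, 50 mM NaCl, 1 mM EDTA, 0.01% Triton X-100, 1 mM DTT, with method D DMSO series of 2.5 mM–800 nM (stock range). IC50 from 4-parameter fit, Ki from probe Kd and concentration.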

[2] = biological target: T2, BRD4 (BDI_K57-E168) (Homo sapiens, UniProt O60885); experiment: TR-FRET bromodomain binding assay, first bromodomain of BRD4; settings: His-tagged BD1, 100 nM Alexa647 probe; TR-FRET protocol A-E given per row
T2 construct: BD1: amino acids K57-E168; made in house
Procedure, shortened: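 Ki values come from IC50s (4-parameter logistic) corrected for probe Kd and concentration, normalised to no-compound and 1 μM unlabelled probe controls. Probe displacement by TR-FRET used 8 nM BD1 (K57-E168), 100 nM Alexa647 probe, 1 nM Eu-anti-His, 20 mM phosphate pH 6.0, 2% DMSO, 1 h, room temperature.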

[3] = system: breast cancer cell line MX-1; experiment: MX-1 cell line proliferation assay; type: cell-based; settings: Homo sapiens, MX1, 72 h, MX-1 cells, 3-day proliferation assay, Cell Titer Glo; read-out: Cellular proliferation EC50
Experimental: The impact of compounds of the Examples on cancer cell proliferation was determined using the breast cancer cell line MX-1 (ATCC) in a 3-day proliferation assay and the data are reported in Table 1. MX-1 cells were maintained in RPMI 1640 medium (Sigma) supplemented with 10% FBS at 37° C. and an atmosphere of 5% CO2. For compound testing, MX-1 cells were plated in 96-well black bottom plates at a density of 5000 cells/well in 90 μL of culture media and incubated at 37° overnight to allow cell adhesion and spreading. Compound dilution series were prepared in DMSO via a 3-fold serial dilution from 3 mM to 0.1 μM. The DMSO dilution series were then diluted 1:100 in phosphate buffered saline, and 10 μL of the resulted solution were added to the appropriate wells of the MX-1 cell plate. The final compound concentrations in the wells were 3, 1, 0.3, 0.1, 0.03, 0.01, 0.003, 0.001, 0.0003 and 0.0001 μM.
Luminescence readings from the Cell Titer Glo assay were normalized to the DMSO treated cells and analyzed using the GraphPad Prism software with sigmoidal curve fitting to obtain EC50s. The minimum significant ratio (MSR) was determined to evaluate assay reproducibility (Eastwood et al., (2006) J Biomol Screen, 11: 253-261).

Structure (SMILES)	pKi [1]	pKi [2]	pEC50 [3]
CCS(=O)(=O)Nc1ccc(Oc2ccc(F)cc2F)c(-c2cn(C)c3c(=O)[nH]c(C(=O)NCCN4CCN(C)CC4)cc23)c1 [Example 197, 3-{2-(2,4-difluorophenoxy)-5-[(ethylsulfonyl)amino]phenyl}-1-methyl-N-[2-(4-methylpiperazin-1-yl)ethyl]-7-oxo-6,7-dihydro-1H-pyrrolo[2,3-c]pyridine-5-carboxamide]	8.37	8.69	7.17
Cn1cc(-c2cc(S(C)(=O)=O)ccc2OCC(C)(C)C)c2cc[nH]c(=O)c21 [Example 27, 3-[2-(2,2-dimethylpropoxy)-5-(methylsulfonyl)phenyl]-1-methyl-1,6-dihydro-7H-pyrrolo[2,3-c]pyridin-7-one]	7.49	8.10	6.75
CCS(=O)(=O)c1ccc(Oc2c(C)nn(C)c2C)c(-c2cn(C)c3c(=O)[nH]ccc23)c1 [Example 90, 3-{5-(ethylsulfonyl)-2-[(1,3,5-trimethyl-1H-pyrazol-4-yl)oxy]phenyl}-1-methyl-1,6-dihydro-7H-pyrrolo[2,3-c]pyridin-7-one]	7.41	7.27	7.02
Cn1cc(-c2cc(S(C)(=O)=O)ccc2OC2CCOCC2)c2cc[nH]c(=O)c21 [Example 24, 1-methyl-3-[5-(methylsulfonyl)-2-(tetrahydro-2H-pyran-4-yloxy)phenyl]-1,6-dihydro-7H-pyrrolo[2,3-c]pyridin-7-one]	7.05	7.77	6.64
Cn1cc(-c2cc(S(C)(=O)=O)ccc2OCC2CCOC2)c2cc[nH]c(=O)c21 (stereo not drawn) [Example 23, 1-methyl-3-[5-(methylsulfonyl)-2-(tetrahydrofuran-3-ylmethoxy)phenyl]-1,6-dihydro-7H-pyrrolo[2,3-c]pyridin-7-one]	6.93	7.89	6.59
Cn1cc(-c2cc(S(=O)(=O)N3CC(F)(F)C3)ccc2OCC2CC2)c2cc[nH]c(=O)c21 [Example 125, 3-{2-(cyclopropylmethoxy)-5-[(3,3-difluoroazetidin-1-yl)sulfonyl]phenyl}-1-methyl-1,6-dihydro-7H-pyrrolo[2,3-c]pyridin-7-one]	7.04	7.16	6.57
COc1cccc(CNc2ccc(Oc3ccc(F)cc3F)c(-c3cn(C)c4c(=O)[nH]ccc34)c2)c1OCc1ccccc1 [Example 177, 3-[5-{[2-(benzyloxy)-3-methoxybenzyl]amino}-2-(2,4-difluorophenoxy)phenyl]-1-methyl-1,6-dihydro-7H-pyrrolo[2,3-c]pyridin-7-one]	6.61	6.88	< 5.52
CCS(=O)(=O)Nc1ccc(OCC2CC2)c(-c2cn(C)c3c(=O)[nH]ccc23)c1C [Example 14, N-[4-(cyclopropylmethoxy)-2-methyl-3-(1-methyl-7-oxo-6,7-dihydro-1H-pyrrolo[2,3-c]pyridin-3-yl)phenyl]ethanesulfonamide]	5.87	7.14	6.30
Cn1cc(-c2cc(S(C)(=O)=O)ccc2O[C@H]2CC[C@H](O)CC2)c2cc[nH]c(=O)c21 [Example 34, 3-{2-[(trans-4-hydroxycyclohexyl)oxy]-5-(methylsulfonyl)phenyl}-1-methyl-1,6-dihydro-7H-pyrrolo[2,3-c]pyridin-7-one]	7.54	8.80	7.02
CCS(=O)(=O)Nc1ccc(OC2COC2)c(-c2cn(C)c3c(=O)[nH]ccc23)c1 [Example 10, N-[3-(1-methyl-7-oxo-6,7-dihydro-1H-pyrrolo[2,3-c]pyridin-3-yl)-4-(oxetan-3-yloxy)phenyl]ethanesulfonamide]	6.85	7.74	6.65

Further lines, results first:

pKi [1]	pKi [2]	pEC50 [3]	Structure (SMILES)
8.05	8.71	7.11	CCS(=O)(=O)Nc1ccc(Oc2ccc(F)cc2F)c(-c2cn(C)c3c(=O)[nH]c(C(=O)NCC#N)cc23)c1 [Example 189, N-(cyanomethyl)-3-{2-(2,4-difluorophenoxy)-5-[(ethylsulfonyl)amino]phenyl}-1-methyl-7-oxo-6,7-dihydro-1H-pyrrolo[2,3-c]pyridine-5-carboxamide]
6.74	7.03	6.34	Cn1cc(-c2cc(S(C)(=O)=O)ccc2Oc2ccc(F)cc2F)c2c(Cl)c[nH]c(=O)c21 [Example 108, 4-chloro-3-[2-(2,4-difluorophenoxy)-5-(methylsulfonyl)phenyl]-1-methyl-1,6-dihydro-7H-pyrrolo[2,3-c]pyridin-7-one]
7.21	7.33	6.70	Cn1cc(-c2cc(S(N)(=O)=O)ccc2Oc2ccc(F)cc2F)c2cc[nH]c(=O)c21 [Example 51, 4-(2,4-difluorophenoxy)-3-(1-methyl-7-oxo-6,7-dihydro-1H-pyrrolo[2,3-c]pyridin-3-yl)benzenesulfonamide]
8.33	8.27	6.51	CCS(=O)(=O)Nc1cnc(Oc2ccc(F)cc2F)c(-c2cn(C)c3c(=O)[nH]ccc23)c1 [Example 184, N-[6-(2,4-difluorophenoxy)-5-(1-methyl-7-oxo-6,7-dihydro-1H-pyrrolo[2,3-c]pyridin-3-yl)pyridin-3-yl]ethanesulfonamide]
7.26	7.60	7.36	Cn1cc(-c2cc(CS(C)(=O)=O)ccc2Nc2ccc(F)cc2F)c2cc[nH]c(=O)c21 [Example 122, 3-{2-[(2,4-difluorophenyl)amino]-5-[(methylsulfonyl)methyl]phenyl}-1-methyl-1,6-dihydro-7H-pyrrolo[2,3-c]pyridin-7-one]
6.82	7.19	6.77	Cn1cc(-c2cc(NC(=O)c3cc(Cl)ccc3Cl)ccc2Oc2ccc(F)cc2F)c2cc[nH]c(=O)c21 [Example 148, 2,5-dichloro-N-[4-(2,4-difluorophenoxy)-3-(1-methyl-7-oxo-6,7-dihydro-1H-pyrrolo[2,3-c]pyridin-3-yl)phenyl]benzamide]
7.87	8.58	6.45	CCS(=O)(=O)Nc1ccc(Oc2ccc(F)cc2F)c(-c2cn(C)c3c(=O)[nH]c(C4CCNCC4)cc23)c1 [Example 183, N-{4-(2,4-difluorophenoxy)-3-[1-methyl-7-oxo-5-(piperidin-4-yl)-6,7-dihydro-1H-pyrrolo[2,3-c]pyridin-3-yl]phenyl}ethanesulfonamide]
6.43	6.97	6.06	Cn1cc(-c2cc(CNS(=O)(=O)C3CCCC3)ccc2Oc2ccc(F)cc2F)c2cc[nH]c(=O)c21 [Example 137, N-[4-(2,4-difluorophenoxy)-3-(1-methyl-7-oxo-6,7-dihydro-1H-pyrrolo[2,3-c]pyridin-3-yl)benzyl]cyclopentanesulfonamide]
8.69	8.92	7.19	CCS(=O)(=O)Nc1ccc(Oc2ccc(F)cc2F)c(-c2cn(C)c3c(=O)[nH]c(C(=O)NCCCn4ccnc4)cc23)c1 [Example 187, 3-{2-(2,4-difluorophenoxy)-5-[(ethylsulfonyl)amino]phenyl}-N-[3-(1H-imidazol-1-yl)propyl]-1-methyl-7-oxo-6,7-dihydro-1H-pyrrolo[2,3-c]pyridine-5-carboxamide]
7.90	7.98	6.79	CCS(=O)(=O)Nc1ccc(Oc2ccc(F)cc2F)c(-c2cn(C)c3c(=O)[nH]c(C(=O)NCC4CCCC4)cc23)c1 [Example 195, N-(cyclopentylmethyl)-3-{2-(2,4-difluorophenoxy)-5-[(ethylsulfonyl)amino]phenyl}-1-methyl-7-oxo-6,7-dihydro-1H-pyrrolo[2,3-c]pyridine-5-c arboxamide]
7.17	7.51	6.47	CCS(=O)(=O)NCc1ccc(Oc2ccc(F)cc2F)c(-c2cn(C)c3c(=O)[nH]ccc23)c1 [Example 106, N-[4-(2,4-difluorophenoxy)-3-(1-methyl-7-oxo-6,7-dihydro-1H-pyrrolo[2,3-c]pyridin-3-yl)benzyl]ethanesulfonamide]
6.84	7.03	6.24	CN1CCN(Cc2ccc(Oc3ccc(F)cc3F)c(-c3cn(C)c4c(=O)[nH]ccc34)c2)CC1 [Example 116, 3-{2-(2,4-difluorophenoxy)-5-[(4-methylpiperazin-1-yl)methyl]phenyl}-1-methyl-1,6-dihydro-7H-pyrrolo[2,3-c]pyridin-7-one]

From patent US9321764B2, “Dihydro-pyrrolopyridinone inhibitors” (AbbVie Inc., priority 2013, dated 2016)
